Source: ChEMBL document CHEMBL2021773, “Isolation, structure elucidation, and antibacterial activity of methiosetin, a tetramic acid from a tropical sooty mold (Capnodium sp.)” (2012)
Values after ≈ are worked out from the molar mass of the structure shown. Active and inactive are the calls of the source. The rule behind the calls is not given here.

Key:
Escherichia coli = test: Antibacterial activity against Escherichia coli at 64 ug/mL by two fold serial broth dilution method; assay type: functional, organism-based
Staphylococcus aureus [1] = test: Antibacterial activity against Staphylococcus aureus EP167 by two fold serial broth dilution method; assay type: functional
Haemophilus influenzae = test: Antibacterial activity against Haemophilus influenzae by two fold serial broth dilution method; assay type: functional
Streptococcus pneumoniae = test: Antibacterial activity against Streptococcus pneumoniae at 64 ug/mL by two fold serial broth dilution method; assay type: functional, organism-based
Enterococcus faecalis = test: Antibacterial activity against Enterococcus faecalis at 64 ug/mL by two fold serial broth dilution method; assay type: functional, organism-based
Staphylococcus aureus [2] = test: Antibacterial activity against Staphylococcus aureus Smith at 64 ug/mL by two fold serial broth dilution method; assay type: functional, organism-based
Staphylococcus aureus [3] = test: Potency ratio, ratio of methiosetin MIC to compound MIC for Staphylococcus aureus EP167 by two fold serial broth dilution method; assay type: functional

SMILES | inhibition (Escherichia coli) | MIC (Staphylococcus aureus [1]) [µg/mL] | MIC (Haemophilus influenzae) [µg/mL] | inhibition (Streptococcus pneumoniae) | inhibition (Enterococcus faecalis) | inhibition (Staphylococcus aureus [2]) | Ratio (Staphylococcus aureus [3])
CC(O)C1C(O)=C(C(=O)[C@H]2[C@@H]3CCCC[C@H]3C=C[C@H]2C)C(=O)N1C (some centres undefined) [METHIOSETIN] | inactive | 256 (≈ 768 µM) | 32 (≈ 96 µM) | inactive | inactive | inactive | –
O=C1C=C[C@H](O)[C@@H]2[C@@H]1C[C@@]13SS[C@]4(C[C@@H]5C(=O)C=C[C@H](O)[C@H]5N4C1=O)C(=O)N23 [EPICORAZINE A] | – | 32 (≈ 76.1 µM) | 0.5 (≈ 1.19 µM) | – | – | – | 8
